The values that follow come from publication PMC8752837, “Structural basis of BAK activation in mitochondrial apoptosis initiation” (Nature Communications, 2022).

For experiment [1], the target named is T1, GST-BAK (Homo sapiens, UniProt Q16611).
T1 construct: made in house
T1 sequence (Q16611 1-211): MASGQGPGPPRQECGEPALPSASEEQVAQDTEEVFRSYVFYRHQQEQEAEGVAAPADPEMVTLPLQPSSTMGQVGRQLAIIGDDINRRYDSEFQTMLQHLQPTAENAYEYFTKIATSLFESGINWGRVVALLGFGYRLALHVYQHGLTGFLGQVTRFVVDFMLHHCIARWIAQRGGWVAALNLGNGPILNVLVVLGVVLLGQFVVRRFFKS
The experiment is described as follows: Competitive fluorescence polarization assay (displacement of BID BH3 SAHB-F). In kind it is binding. The source says:
We also tested the monosubstituted peptides in competitive fluorescence polarization (FP) binding assays, which measure displacement from GST-BAK of BID BH3 stabilized alpha helix of BCL-2 proteins (SAHB) C-terminally tagged with fluorescein and thus informs on peptide binding affinity.
We carried out fluorescence polarization assays, measuring the displacement of the fluorescent peptide BID BH3 SAHB-F from GST-BAK, in 384-well Greiner black polystyrene plates with flat bottom (Sigma-Aldrich). Master mix consisted of 50 mM Tris-HCl pH 7.5, 50 mM KCl, 0.1 mg/mL BSA, 2 mM DTT, 0.005% Tween-20, 10 nM BID BH3 SAHB-F, and 1 µM GST-BAK. We pin transferred peptides using Biomek FX (Beckman Coulter Life Sciences, IN) to achieve final concentration of 500−0.2 µM in 20 µL final volume. We gently centrifuged plates to remove air bubbles for 1 min at 1000 rpm, and incubated them for 60 min at RT. […] Free peptide controls in each plate consisted of only BID BH3 SAHB-F and bound peptide controls containing BID BH3 SAHB-F + GST-BAK. We derived Z’-values using the equation [1 − 3(stdev^L + stdev^H)]/(average^H − average^L), where L is the free peptide control and H is the bound peptide control. […] We processed and visualized data using the software Robust Investigation of Screening Experiments (RISE) developed in house in the Pipeline Pilot platform (Accelrys, v.8.5.0). We performed at least three independent dose-response experiments for each peptide. We estimated IC50 values in RISE and GraphPad Prism v.8.0a.
For orientation: Polarisation of emitted light reports the rotation of a fluorescent probe.

Experiment [2] has as its target T2, Human BAK-∆TM-His6 (BAK) (Homo sapiens, UniProt Q16611).
T2 construct: C-terminus truncated recombinant human BAK containing C-terminal 6× histidine tag (MEAS-BAK); made in house; host or cells: E. coli T7 Express pLac I/Y
T2 sequence (Q16611 1-186 limits assumed): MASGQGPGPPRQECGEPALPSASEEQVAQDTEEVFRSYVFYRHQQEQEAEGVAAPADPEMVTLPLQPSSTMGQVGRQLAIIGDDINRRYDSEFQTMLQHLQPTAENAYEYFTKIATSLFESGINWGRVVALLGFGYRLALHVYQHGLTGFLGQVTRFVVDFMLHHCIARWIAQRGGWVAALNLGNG
The experiment is described as follows: Liposome permeabilization assay (ANTS/DPX dye release from LUVs): activation of WT BAK by BH3 peptides.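 On AUC for Experiment-2 (Mean): traces normalized between buffer minimum and 3% CHAPS maximum fluorescence.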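 On AUC for Experiment-3 (Mean): traces normalized between buffer minimum and 3% CHAPS maximum fluorescence.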 Particulars: for AUC for Experiment-1 (Mean) / AUC for Experiment-2 (Mean) / AUC for Experiment-3 (Mean): AUC 0-88 mins of liposome permeabilization; for AUC for Experiment-1 (Mean): Experiment-1, mean of N replicates; for AUC for Experiment-2 (Mean): Experiment-2, mean of N replicates; for AUC for Experiment-3 (Mean): Experiment-3, mean of N replicates; for EC50: Fig. 4e, AUC vs peptide dose (Suppl. Fig. 6b), n = 2 experiments each of n = 3 technical replicates, read-out: EC50 LP; for EC50 / direct BAK activation compared to WT BID BH3: 50 nM BAK; for direct BAK activation compared to WT BID BH3: liposome permeabilization, Fig. 4c, e. In kind it is biochemical. More on the design: AUC for Experiment-2 (Mean) / AUC for Experiment-3 (Mean) / AUC for Experiment-1 (Mean):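 traces normalized between buffer minimum and 3% CHAPS maximum fluorescence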. The procedure:
We performed liposome permeabilization assays as previously described[43]–[46]. […] We mixed the lipid film in ANTS/DPX solution by vortexing and sonication (~15 min) followed by extrusion through polycarbonate membrane of 2 μm pore size (Avanti Polar lipids) to generate homogenous large unilamellar vesicles (LUVs). We separated LUVs from free ANTS/DPX by S500 size exclusion chromatography and stored them at 4 °C in the dark. We prepared peptide and protein dilutions in 96-well black flat bottom plates (Costar) kept on ice. […] We quantified liposome permabilization by integrating area under curve (AUC) of normalized traces based on the Simpson’s equation, and analyzed that data in Excel and GraphPad Prism. AUC measurements reflect the kinetic and extent of liposome permeabilization and provide quantitative means for comparison between different experimental conditions (e.g., BAK mutants with gross or partial variation in activity).

Setting [3] is: displacement of 10 nM BID BH3 SAHB-fluorescein from 1 µM GST-BAK, peptide 500−0.2 µM, 60 min RT, mean ± SD, n = 9 experiments, read-out: IC50 FP.

Like-named read-outs stand apart in the source and are kept apart here. Marks after values point to notes of the source that are not given here.

In the case of Ac-EDIIRNIARHLAQVGDSWDRSI-NH2 [W(4)], the IC50 – broadly, the concentration at which inhibition is half-maximal – in experiment [1] (setting [3]) was 11.5 ± 7.5 µM. Also, in experiment [2] (1 μM peptide + 50 nM BAK), the “AUC for Experiment-1 (Mean)” value was 16.565, the “AUC for Experiment-2 (Mean)” value is given as 21.49 and the “AUC for Experiment-3 (Mean)” value worked out at 16.942. Further, in experiment [2] (50 μM peptide + 50 nM BAK), the “AUC for Experiment-1 (Mean)” value was found to be 21.822, the “AUC for Experiment-2 (Mean)” value came out at 26.263 and the “AUC for Experiment-3 (Mean)” value came to 21.192. Moreover, in experiment [2], the EC50 – broadly, the concentration that produces a half-maximal response – was found to be 0.264 ± 0.0091 µM and the “direct BAK activation compared to WT BID BH3” value is listed as “gain in direct BAK activation compared to WT BID BH3”.
Regarding Ac-EDIIRNIARHLAQVGDSYDRSI-NH2 [Y(4)], the IC50 in experiment [1] (setting [3]) came out at 6.9 ± 5 µM. In experiment [2] (1 μM peptide + 50 nM BAK), the “AUC for Experiment-1 (Mean)” value worked out at 22.669, the “AUC for Experiment-2 (Mean)” value was determined as 26.226 and the “AUC for Experiment-3 (Mean)” value stood at 23.05. Further, in experiment [2] (50 μM peptide + 50 nM BAK), the “AUC for Experiment-1 (Mean)” value came to 21.941, the “AUC for Experiment-2 (Mean)” value is 27.175 and the “AUC for Experiment-3 (Mean)” value is given as 24.539. In addition, in experiment [2], the EC50 was determined as 0.213 ± 0.0082 µM and the “direct BAK activation compared to WT BID BH3” value is recorded as “gain in direct BAK activation compared to WT BID BH3”.
Take Ac-EDIIRNIARHLAQWGDSMDRSI-NH2 [W(3)]: the IC50 was determined as 7.12 µM in experiment [1] (competitive FP, Experiment-1); 5.471 µM in experiment [1] (competitive FP, Experiment-2); 7.795 µM in experiment [1] (competitive FP, Experiment-3); 5.632 µM in experiment [1] (competitive FP, Experiment-4); 5.62 µM in experiment [1] (competitive FP, Experiment-5); 7.05 µM in experiment [1] (competitive FP, Experiment-6). The IC50 in experiment [1] (competitive FP, Experiment-7) was determined as 5.661 µM; in experiment [1] (competitive FP, Experiment-8) it was 7.109 µM; in experiment [1] (competitive FP, Experiment-9) it was 8.02 µM; in experiment [1] (competitive FP, mean of the experiments (replicated 4-9 times), read-out: IC50 Mean) it was 6.6 µM. The “AUC for Experiment-1 (Mean)” value in experiment [2] (1 μM peptide + 50 nM BAK) came to 14.061; in experiment [2] (50 μM peptide + 50 nM BAK), 8.5044. In addition, the entries for the “AUC for Experiment-2 (Mean)” value in experiment [2] (1 μM peptide + 50 nM BAK) and in experiment [2] (50 μM peptide + 50 nM BAK) were 9.0873 and 6.7192, respectively. Moreover, the “AUC for Experiment-3 (Mean)” value in experiment [2] (1 μM peptide + 50 nM BAK) was determined as 8.9347; in experiment [2] (50 μM peptide + 50 nM BAK), 7.8089. Further, the EC50 in experiment [2] worked out at 0.163 ± 0.0053 µM. Besides, the “direct BAK activation compared to WT BID BH3” value in experiment [2] was “less direct BAK activation compared to WT BID BH3”.
Ac-EDIIRNIARHLAQYGDSMDRSI-NH2 [Y(3)]: the half-maximal inhibitory concentration (IC50) in experiment [1] (setting [3]) worked out at 6.2 ± 1.5 µM. In addition, in experiment [2] (1 μM peptide + 50 nM BAK), the “AUC for Experiment-1 (Mean)” value came to 14.1, the “AUC for Experiment-2 (Mean)” value was 10.652 and the “AUC for Experiment-3 (Mean)” value was 12.187. Besides, in experiment [2] (50 μM peptide + 50 nM BAK), the “AUC for Experiment-1 (Mean)” value is recorded as 18.672, the “AUC for Experiment-2 (Mean)” value was determined as 10.496 and the “AUC for Experiment-3 (Mean)” value was 13.717. The EC50 in experiment [2] worked out at 0.372 ± 0.116 µM.
For the substance Ac-EDIWRNIARHLAQVGDSMDRSI-NH2 [W(0')], the IC50 in experiment [1] (setting [3]) is 27.4 ± 16.4 µM. Besides, in experiment [2] (1 μM peptide + 50 nM BAK), the “AUC for Experiment-1 (Mean)” value was 15.025, the “AUC for Experiment-2 (Mean)” value is listed as 10.6297 and the “AUC for Experiment-3 (Mean)” value was found to be 8.405. In experiment [2] (50 μM peptide + 50 nM BAK), the “AUC for Experiment-1 (Mean)” value is 12.2448, the “AUC for Experiment-2 (Mean)” value was 5.78* and the “AUC for Experiment-3 (Mean)” value worked out at 12.8163. Also, in experiment [2], the EC50 is 0.242 ± 0.0663 µM.
